Where two headings read alike, the source gives them in different places. One block for each molecule: values may come before it.
Columns and labels:
[1] = system: human induced pluripotent stem cell-derived cardiomyocytes (hiPSC-CM); test: Action potential recordings in hiPSC-CM with voltage sensitive dye (FluoVolt, CellOPTIQ); type: cell-based; conditions: hiPSC-CM; for Effect on cycle length: all tested concentrations
Experimental: Cryopreserved human induced pluripotent stem cell-derived cardiomyocytes (hiPSC-CM): CDI iCell cardiomycytes^2 01434 CardioTox Kit (Catalog #: R1222, FujiFilm CDI, Madison, WI) were kept in liquid nitrogen until culture according to instructions by the manufacturer. […] All studies were conducted at Clyde Biosciences (Glasgow, Scotland). Cells were cultured in 96-well glass-bottomed plates (MatTek, Ashland, Massachusetts) coated with fibronectin ([…] in PBS supplemented with Ca2+ and Mg2+) (Sigma, St. Louis, Missouri) in a humidified incubator at 37 °C for 3 h. The cell density was 50,000 cells/cm2 (25,000 cells/well). The subsequent maintenance protocols followed manufacturer's instructions using their maintenance medial (FujiFilm CDI Cardiomyocytes Maintenance Media). Experiments were performed between days 4–8. Prior to beginning an experiment, cells were washed in serum-free media (SF media), specifically DMEM (Gibco, ThermoFisher Scientific, UK) supplemented with 10 mM galactose and 10 mM sodium pyruvate.
hiPSC-CM were loaded with 5 μM FluoVolt (ThermoFisher) and the multiwell plate was placed in the CellOPTIQ platform (at Clyde Biosciences Ltd, Glasgow, Scotland). The FluoVolt fluorescence signal was recorded using a 40 × (NA 0.6) objective lens. Excitation wavelength was 480 ± 10 nm, and emitted light was collected by a photomultiplier (PMT) at 510–560 nm. Drugs were supplied by Santa Cruz Biotechnology (Germany) and Toronto Research Chemicals (Canada). Their identity and concentration were blinded from the laboratory personnel. […] 30 min after exposure to the tested drug or vehicle a 20 s recording was taken. Offline analysis was performed using proprietary software (CellOPTIQ®). The following (averaged) parameters were obtained from the AP recordings of 4 independent replicates: cycle length (CL, […]); rise time (Trise, ms) between 10 and 90% of the AP amplitude, and AP durations (APD, ms) from 10% to 90% repolarization at 10% intervals. In this study rate-correction was based on previous studies.[14]
Drugs were tested at 3 concentrations with matched vehicle controls for each concentration. The chosen escitalopram (S-citalopram) concentration was 60 nM. Assuming no protein binding in the in vitro model, this corresponds to a total serum concentration of 136 nM, as escitalopram protein binding is reported at 55–56% (most commonly 56%, which is used in the present study).[15], [16], [17] […] This could vary with age and clinical conditions.[20] […] In a large therapeutic drug monitoring (TDM) study 60 nM was the average total concentration in patients with normal escitalopram metabolism through CYP2C19, and 136 nM was below the average total concentration in poor metabolizers.[7] After administration of racemic citalopram, R-citalopram is reported to be 3 times higher than S-citalopram in a publication by Ji et al.[22] The typical concentration of R-citalopram as well as the S-/R-demethylcitalopram and S-/R-didemethylcitalopram metabolites, were calculated according to ratios from their paper.[22]
Shapiro Wilk tests were used to determine whether the data in this study were normally distributed based on a least-squares fit to a normal function, while Brown–Forsythe test was used to verify homogeneity of variance (Origin version 9, OriginLab Corp., Northampton, Massachusetts). […] Statistical tests were made using a paired t-tests for differences between absolute values, with P-values adjusted for multiple comparisons using the Benjamini-Hochberg procedure (one-way ANOVA). The relationship between AP duration at 90% of repolarization (APD90) and CL or diastolic interval was fit to single or double exponential functions (Origin version 9).

[2] = Therapeutic drug monitoring (TDM) serum concentrations in patients; conditions: for Serum concentration, 10% percentile / Serum concentration, 25% percentile / Serum concentration, 50% percentile / Serum concentration, 75% percentile / Serum concentration, 90% percentile / Serum concentration, maximum / Serum concentration, minimum: trough; for Serum concentration, mean: trough (10-28 h after dose)
Text: (§1) Information regarding age, sex, daily dose and time between last dose and blood sampling was also collected from the database. For patients with multiple TDM measurements, only the last measurement was included. Included patients were divided into four subgroups based on age: (a) < 18, (b) 18–64, (c) 65–80, and (d) > 80 years.
(§2) Measured serum concentrations represent total concentrations, i.e. the sum of bound and unbound drug.
(§3) All patients were included unless they met the exclusion criteria. Exclusion criteria were: (a) serum concentration of citalopram, escitalopram and/or demethylcitalopram outside the limits of quantification (LOQ), (b) blood sampling not performed at trough levels, outside the time interval of 10–28 h after last dose intake, (c) prescribed dose of citalopram or escitalopram less/more than 2.5–80 mg or 2.5–60 mg, respectively, and (d) detection of interacting drugs in the citalopram/escitalopram serum sample. In detail, we screened the samples for CYP2C19 inducers carbamazepine, phenobarbital and phenytoin and the CYP2C19 or –2D6 inhibitors bupropion, fluoxetine, fluvoxamine, paroxetine or levomepromazine.
(§4) Differences in absolute serum concentrations of citalopram, escitalopram and metabolites as well as differences in time between last blood sampling and daily dose was investigated across the age subgroups using Kruskal Wallis test followed by Dunn's test. P-values were Bonferroni corrected by multiplying the P-value by the number of statistical analyses that were performed.

[3] = set-up: method as in earlier work; conditions: cited from earlier work
[4] = human, in vivo
Text: as §1, §2, §3, §4

- Concentration dependence of triangulation [1]: dose-dependent increase
- % Change of cycle length from baseline ([1]; 10x clinical concentration): -3.81±3.22 %
- % Change of cycle length from baseline ([1]; 100x clinical concentration): -7.22±2.14 %
- Concentration that increased late repolarisation (APD90) ([1]; 30 min exposure): 1500 nM
- Concentration that increased triangulation (APD90-APD30) of the action potential ([1]; 30 min exposure): 150 nM
- Concentration that reduced early repolarisation (APD30) ([1]; 30 min exposure): 1500 nM
- Effect on cycle length [1]: limited shortening
- % Change of cycle length from baseline ([1]; clinical concentration): -4.33±3.45 %
Compound: CNCCC[C@@]1(c2ccc(F)cc2)OCc2cc(C#N)ccc21 [S-demethylcitalopram]

- Serum concentration, 10% percentile ([2]; citalopram users): 23 nM
- Serum concentration, 25% percentile ([2]; citalopram users): 35 nM
- Serum concentration, 50% percentile ([2]; citalopram users): 55 nM
- Serum concentration, 75% percentile ([2]; citalopram users): 87 nM
- Serum concentration, 90% percentile ([2]; citalopram users): 130 nM
- Serum concentration, maximum ([2]; citalopram users): 395 nM
- Serum concentration, minimum ([2]; citalopram users): 5 nM
- Serum concentration, mean ([2]; citalopram users): 68 nM
- Serum concentration, 10% percentile ([2]; escitalopram users): 13 nM
- Serum concentration, 25% percentile ([2]; escitalopram users): 18 nM
- Serum concentration, 50% percentile ([2]; escitalopram users): 26 nM
- Serum concentration, 75% percentile ([2]; escitalopram users): 37 nM
- Serum concentration, 90% percentile ([2]; escitalopram users): 51 nM
- Serum concentration, maximum ([2]; escitalopram users): 329 nM
- Serum concentration, minimum ([2]; escitalopram users): 5 nM
- Serum concentration, mean ([2]; escitalopram users): 30 nM
Compound: CNCCCC1(c2ccc(F)cc2)OCc2cc(C#N)ccc21 (stereo not drawn) [Demethylcitalopram, demethylcitalopram]

- % Change of cycle length from baseline ([1]; 10x clinical concentration): -1.09±3.49%
- % Change of cycle length from baseline ([1]; 100x clinical concentration): -1.67±2.65%
- Concentration that increased early repolarisation (APD30) ([1]; 30 min exposure): 60 nM
- Concentration that reduced triangulation (APD90-APD30) ([1]; 30 min exposure): 6 nM
- Effect on cycle length [1]: not affected
- % Change of cycle length from baseline ([1]; clinical concentration): -1.40±5.04%
Compound: N#Cc1ccc2c(c1)CO[C@]2(CCCN)c1ccc(F)cc1 [R-didemethylcitalopram]
- Cardiotoxic at therapeutic concentrations [1]: did not find indications

Compound: N#Cc1ccc2c(c1)COC2(CCCN)c1ccc(F)cc1 (stereo not drawn) [Didemethylcitalopram, didemethylcitalopram]
- Serum concentrations associated with sudden death in dogs, relative to humans [3]: 39–155 times
- Serum concentration, 10% percentile [4]: 0.82 nM
- Serum concentration, 25% percentile [4]: 1.72 nM
- Serum concentration, 50% percentile [4]: 3.47 nM
- Serum concentration, 75% percentile [4]: 5.90 nM
- Serum concentration, 90% percentile [4]: 9.65 nM
- Serum concentration, maximum [4]: 35.33 nM
- Serum concentration, minimum [4]: 0.34 nM
